The target of assay [1] is T1, CARM1 (Homo sapiens, UniProt Q86X55).
T1 sequence (Q86X55 1-608): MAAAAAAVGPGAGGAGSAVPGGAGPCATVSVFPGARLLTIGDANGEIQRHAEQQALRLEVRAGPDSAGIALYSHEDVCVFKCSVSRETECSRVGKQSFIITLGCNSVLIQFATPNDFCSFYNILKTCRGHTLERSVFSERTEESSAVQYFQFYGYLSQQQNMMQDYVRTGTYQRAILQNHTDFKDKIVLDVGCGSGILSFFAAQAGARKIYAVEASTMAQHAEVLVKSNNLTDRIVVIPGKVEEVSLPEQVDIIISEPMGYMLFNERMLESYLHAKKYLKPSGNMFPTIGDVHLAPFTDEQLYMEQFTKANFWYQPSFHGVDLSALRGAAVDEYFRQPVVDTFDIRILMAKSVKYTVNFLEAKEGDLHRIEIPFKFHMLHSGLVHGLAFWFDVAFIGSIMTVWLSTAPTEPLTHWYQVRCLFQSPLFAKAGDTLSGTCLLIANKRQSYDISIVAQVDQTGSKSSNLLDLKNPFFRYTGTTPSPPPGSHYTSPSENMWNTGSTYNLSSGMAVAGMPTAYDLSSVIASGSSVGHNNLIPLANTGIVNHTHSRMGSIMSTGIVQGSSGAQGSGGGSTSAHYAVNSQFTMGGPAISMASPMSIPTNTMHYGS
As to the kind of experiment: CARM1 assay (histone H3, 3H-SAM). It counts as biochemical. On the procedure:
Histone H3 (5 μM) was added in freshly prepared reaction buffer (50 mM Tris-HCl (pH 8.5), 5 mM MgCl2, 50 mM NaCl, 0.01% Brij35, 1 mM DTT, 1% DMSO). CARM1 was delivered into the substrate solution and the mixture was mixed gently. Afterwards, the tested compounds dissolved in DMSO were delivered into the enzyme/substrate reaction mixture by using Acoustic Technology (Echo 550, LabCyte Inc. Sunnyvale, CA) in nanoliter range, and 1 µM ^3H-SAM was also added into the reaction mixture to initiate the reaction. The reaction mixture was incubated for 1 h at 30 °C and then it was delivered to filter-paper for detection. The data were analyzed using Excel and GraphPad Prism software for IC50 curve fits. The experiments were performed in triplicate.

Assay [2] concerns the target PRC2/EZH2 (Homo sapiens, UniProt Q15910). Nature of the assay: EZH2/PRC2 assay (core histone, 3H-SAM). The following applies: 10-dose, duplicate, from 400 μM. It counts as biochemical. The procedure: The newly synthesized compounds 4a–n were tested to determine their effects against acetylation and methylation epigenetic targets. First, 4a–n were screened in vitro against the two HAT enzymes p300 and PCAF. […] To determine the activity against SIRT1 and -2, 4a–n were tested starting from 200 μM solutions using a modified Fluor de Lys fluorescence-based assay with amino acids 379–382 (Arg-His-Lys-Lys(Ac)) of human p53 conjugated with aminomethylcoumarin as substrate and NAD^+ as co-substrate. […] Furthermore, 4a–n were tested against a human five-membered Polycomb repressive complex 2 (PRC2) containing EZH2, embryonic ectoderm development (EED), suppressor of zeste 12 (SUZ12), RbAp48, and adipocyte enhancer-binding protein (AEBP2), to assess their capability to inhibit the catalytic unit EZH2.
The EZH2 substrate (0.05 mg/mL core histone) was added in the freshly prepared reaction buffer (50 mM Tris-HCl (pH 8.0), 50 mM NaCl, 1 mM EDTA, 1 mM DTT, 1 mM PMSF, 1% DMSO). The PRC2 complex (complex of human EZH2, human EED, human SUZ12, human AEBP2, and human RbAp48) was delivered into the substrate solution and the mixture was mixed gently. Afterwards, the tested compounds dissolved in DMSO were delivered into the enzyme/substrate reaction mixture by using Acoustic Technology (Echo 550, LabCyte Inc. Sunnyvale, CA, USA) in nanoliter range, and ^3H-SAM was added into the reaction mixture to initiate the reaction. The reaction mixture was incubated for 1 h at 30 °C and then it was delivered to filter-paper for detection. The data were analyzed using Excel and GraphPad Prism software for IC50 curve fits. The experiments were performed in duplicate.

Assay [3] concerns EZH2. Nature of the assay: Western blot of H3K27me3 (EZH2) in MCF-7 cells. The following applies: 5 μM, 30 h. It counts as cell-based, human. On the procedure:
In MCF-7 cells, the levels of acetyl-H3, acetyl-H4, H3K27me3, and H3R17me2 were detected by western blot analyses as functional tests for p300 (acH3 and acH4), EZH2 (H3K27me3) and CARM1 (H3R17me2) inhibition in cells, respectively (Figure 5).
(§1) The procedures were performed as described in [30, 31]. Primary antibodies used were: Ac-H3 (Millipore, Milan, Italy); Ac-H4 (Millipore, Milan, Italy); Ac-H3K9-14 (Diagenode, Ougrée, Belgium); Ac-α-tubulin (Sigma-Aldrich), H3K27me3 (Diagenode); H3R17me2 (Diagenode); EZH2 (Abcam, Cambridge, UK). H3 (Sigma-Aldrich), H4 (Abcam), GAPDH (Sigma) and ERKs (Santa Cruz, Biotechnology, TX, USA) were used to normalize the total protein extracts (see also Supplementary Material).
A general note: Immunoblotting shows a protein as a band on a membrane.

In assay [4] the test system is SH-SY5Y cells. As to the kind of experiment: Cell cycle and apoptosis (sub-G1) analysis by FACS in SH-SY5Y cells. It counts as cell-based, human. As to conditions: 5 μM, 30 h. On the procedure: Compounds 4a–n were tested at 5 μM for 30 h in NB4 […] and U937 AML cells among hematological cancers, and in MCF-7 breast cancer and SH-SY5Y neuroblastoma cells among solid cancers, to determine their effects in cell cycle and apoptosis induction.
In the same cell lines, the induction of apoptosis has been evaluated through the percentage of the sub-G1 peaks.
For colorimetric exclusion, the cells (2 × 10^5 cells/mL) were plated in multiwells in triplicate. After stimulations at different times and concentrations, cells were diluted in the ratio 1:1 in Trypan Blue (Sigma) and counted with an optical microscope. For cell cycle analyses, cells were plated (2 × 10^5 cells/mL) and were harvested, centrifuged at 1200 rpm for 5 min and resuspended in 500 μL of a hypotonic solution containing 1× PBS, Sodium Citrate 0.1%, 0.1% NP-40, RNAase A and […] Propidium Iodide (PI). After 30 min at room temperature (RT) in the dark, samples were acquired by FACS-Calibur (BD Bioscences, San Jose, CA, USA) using CellQuest software (BD Biosciences). The percentage in different phases of the cell cycle was determined by ModFit LT V3 software (Verity). All experiments were performed in triplicate. Cell death was measured as percentage of cells in sub-G1 phase as in [30].
In general terms: Flow cytometry measures light scatter and fluorescence of single cells or particles in a stream.

The test system of assay [5] is CARM1. Nature of the assay: Western blot of H3R17me2 (CARM1 inhibition) in NB4 cells. It counts as cell-based, human. As to conditions: 5 μM, 30 h.
From the text: In NB4 cells, the levels of acetyl-H3 (acH3) and acetyl-H4 (acH4) as well as those of acetyl-H3K9/14 (AcH3K9/14, see Supplementary material) and of the non-histone substrate acetyl-α-tubulin (Ac-Tubulin) were detected as an index of p300 inhibition (Figure 4). In the same cell line, the levels of H3K27me3, histone mark of the EZH2 catalytic activity (Figure 4), as well as the level of the EZH2 expression (see Supplementary material) have been determined. Last, the amount of H3R17me2, the functional read-out of CARM1 inhibition, was determined (Figure 4).
as §1

SMILES strings stand for the structures.

Chain of PRC2/EZH2 (Q15022 whole entry, the tested form may be a part): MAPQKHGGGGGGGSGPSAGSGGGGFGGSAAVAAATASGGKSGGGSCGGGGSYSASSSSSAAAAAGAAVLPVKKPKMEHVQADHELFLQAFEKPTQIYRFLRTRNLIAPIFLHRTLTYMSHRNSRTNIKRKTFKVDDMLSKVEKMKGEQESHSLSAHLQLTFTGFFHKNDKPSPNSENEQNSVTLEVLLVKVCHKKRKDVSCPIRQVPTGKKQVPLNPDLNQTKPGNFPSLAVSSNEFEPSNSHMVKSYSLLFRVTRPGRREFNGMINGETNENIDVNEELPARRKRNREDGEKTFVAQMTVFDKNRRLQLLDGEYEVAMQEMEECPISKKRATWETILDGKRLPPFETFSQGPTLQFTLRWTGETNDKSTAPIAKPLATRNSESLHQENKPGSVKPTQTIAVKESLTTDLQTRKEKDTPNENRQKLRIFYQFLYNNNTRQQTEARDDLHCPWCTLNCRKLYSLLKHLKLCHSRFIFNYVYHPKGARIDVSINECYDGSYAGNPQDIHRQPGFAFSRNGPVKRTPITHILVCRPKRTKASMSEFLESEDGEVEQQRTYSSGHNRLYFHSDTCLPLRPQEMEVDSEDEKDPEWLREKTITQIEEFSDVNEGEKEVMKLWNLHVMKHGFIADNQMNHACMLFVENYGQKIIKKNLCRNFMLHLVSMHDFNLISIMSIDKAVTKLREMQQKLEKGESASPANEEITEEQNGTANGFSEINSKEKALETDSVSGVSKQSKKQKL
Chain of PRC2/EZH2 (Q09028 whole entry, further chain, the tested form may be a part): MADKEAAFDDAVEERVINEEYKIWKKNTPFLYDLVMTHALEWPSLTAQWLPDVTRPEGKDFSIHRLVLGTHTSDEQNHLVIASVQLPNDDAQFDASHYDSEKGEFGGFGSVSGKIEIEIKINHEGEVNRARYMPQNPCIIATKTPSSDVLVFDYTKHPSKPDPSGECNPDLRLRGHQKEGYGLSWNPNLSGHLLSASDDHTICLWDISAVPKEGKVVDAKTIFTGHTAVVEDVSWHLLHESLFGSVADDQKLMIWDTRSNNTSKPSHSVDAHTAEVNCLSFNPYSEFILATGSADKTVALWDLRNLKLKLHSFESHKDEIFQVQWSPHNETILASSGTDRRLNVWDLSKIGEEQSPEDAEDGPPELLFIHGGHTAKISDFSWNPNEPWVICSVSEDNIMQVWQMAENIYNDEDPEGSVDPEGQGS
Chain of PRC2/EZH2 (Q6ZN18 whole entry, further chain, the tested form may be a part): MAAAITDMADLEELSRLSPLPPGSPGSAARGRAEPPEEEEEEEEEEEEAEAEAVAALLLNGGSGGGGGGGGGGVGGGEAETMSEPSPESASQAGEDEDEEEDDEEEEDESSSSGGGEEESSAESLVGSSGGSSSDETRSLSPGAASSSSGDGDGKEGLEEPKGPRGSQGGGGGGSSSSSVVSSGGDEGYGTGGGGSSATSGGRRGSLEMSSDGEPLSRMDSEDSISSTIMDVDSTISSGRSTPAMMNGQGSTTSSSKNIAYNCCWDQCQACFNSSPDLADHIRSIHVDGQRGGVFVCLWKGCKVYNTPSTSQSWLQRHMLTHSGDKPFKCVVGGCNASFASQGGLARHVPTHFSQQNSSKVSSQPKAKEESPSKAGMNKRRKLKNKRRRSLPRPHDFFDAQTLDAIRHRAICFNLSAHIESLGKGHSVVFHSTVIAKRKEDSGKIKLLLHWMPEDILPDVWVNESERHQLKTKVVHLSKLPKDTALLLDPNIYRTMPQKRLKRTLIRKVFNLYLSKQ
Chain of PRC2/EZH2 (Q15910 whole entry, the tested form may be a part): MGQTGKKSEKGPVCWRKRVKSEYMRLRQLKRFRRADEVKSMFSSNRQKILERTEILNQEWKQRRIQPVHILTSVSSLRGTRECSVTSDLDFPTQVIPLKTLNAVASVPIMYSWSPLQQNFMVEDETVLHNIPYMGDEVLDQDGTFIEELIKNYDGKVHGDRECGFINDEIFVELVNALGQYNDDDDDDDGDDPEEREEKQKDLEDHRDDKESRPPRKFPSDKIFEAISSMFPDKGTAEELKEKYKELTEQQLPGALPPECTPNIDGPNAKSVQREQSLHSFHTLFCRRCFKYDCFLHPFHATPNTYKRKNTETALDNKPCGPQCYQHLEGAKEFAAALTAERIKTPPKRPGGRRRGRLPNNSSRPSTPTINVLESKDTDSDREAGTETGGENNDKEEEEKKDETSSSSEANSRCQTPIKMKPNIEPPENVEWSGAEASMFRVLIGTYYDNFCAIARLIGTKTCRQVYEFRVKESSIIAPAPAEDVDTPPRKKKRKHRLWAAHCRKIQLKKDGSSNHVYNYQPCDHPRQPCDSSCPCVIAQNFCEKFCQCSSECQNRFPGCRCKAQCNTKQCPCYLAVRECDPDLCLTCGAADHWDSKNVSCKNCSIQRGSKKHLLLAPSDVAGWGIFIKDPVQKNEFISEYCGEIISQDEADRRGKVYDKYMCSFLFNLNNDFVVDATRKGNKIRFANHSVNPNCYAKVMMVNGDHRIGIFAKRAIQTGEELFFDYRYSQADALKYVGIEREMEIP
Chain of PRC2/EZH2 (O75530 whole entry, further chain, the tested form may be a part): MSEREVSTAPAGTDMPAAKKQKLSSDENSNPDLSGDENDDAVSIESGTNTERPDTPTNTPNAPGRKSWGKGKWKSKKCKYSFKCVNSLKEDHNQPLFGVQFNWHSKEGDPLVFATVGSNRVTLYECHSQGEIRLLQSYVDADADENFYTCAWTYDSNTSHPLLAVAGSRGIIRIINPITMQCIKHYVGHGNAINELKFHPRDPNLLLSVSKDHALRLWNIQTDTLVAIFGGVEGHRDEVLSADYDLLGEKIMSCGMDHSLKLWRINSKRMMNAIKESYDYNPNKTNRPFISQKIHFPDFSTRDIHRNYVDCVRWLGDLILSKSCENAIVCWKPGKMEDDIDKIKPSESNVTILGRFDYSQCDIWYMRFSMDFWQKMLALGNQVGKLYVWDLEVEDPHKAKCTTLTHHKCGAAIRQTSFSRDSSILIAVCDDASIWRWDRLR

Usually IC50 stands for the midpoint of a concentration-inhibition curve. As for `O=C1/C(=C/c2ccccc2Br)CN(Cc2ccccc2)C/C1=C\c1ccccc1Br` [Compound 4e, 1-benzyl-3,5-bis((E)-2-bromobenzylidene)piperidin-4-one], the IC50 is 6.5 ± 0.86 µM in assay [1] and 44.2 ± 0.2 µM in assay [2]. Besides, the “levels of H3K27me3” value in assay [3] is on record as “reduction of the H3K27me3 levels”.
Turning to `O=C1/C(=C/c2ccccc2Br)CN(CCc2ccccc2)C/C1=C\c1ccccc1Br` [Compound 4f, 3,5-Bis((E)-2-bromobenzylidene)-1-phenethylpiperidin-4-one], in assay [1], the IC50 was 18.5 ± 0.9 µM.
Regarding `O=C1/C(=C/c2ccccc2Br)CN(CCCc2ccccc2)C/C1=C\c1ccccc1Br` [Compound 4g, 3,5-Bis((E)-2-bromobenzylidene)-1-(3-phenylpropyl)piperidin-4-one], in assay [1], the IC50 worked out at 12.6 ± 2.6 µM.
Take `O=C1/C(=C/c2ccccc2Br)CN(CC(=O)c2ccccc2)C/C1=C\c1ccccc1Br` [Compound 4h, 3,5-Bis((E)-2-bromobenzylidene)-1-(2-oxo-2-phenylethyl)piperidin-4-one]: the figures for the IC50 in assay [1] and in assay [2] were 5.52 ± 0.78 µM and 46 ± 8.1 µM, respectively. Moreover, in assay [4], the “effect on cell cycle phases” value was “arrest in the G1/S phase”. Besides, the “induction of apoptosis, % sub-G1 peaks” value in assay [4] was “less than 20%”. In assay [3], the “levels of H3K27me3” value was “reduction of the H3K27me3 levels”. For the same compound, the “levels of H3R17me2” value in assay [5] is “most effective”.
In the case of `O=C1/C(=C/c2ccccc2Br)CN(CCCC(=O)c2ccccc2)C/C1=C\c1ccccc1Br` [Compound 4j, 3,5-Bis((E)-2-bromobenzylidene)-1-(4-oxo-4-phenylbutyl)piperidin-4-one], the IC50 in assay [1] turned out to be 4.8 ± 1.72 µM; in assay [2], 68.5 ± 6.2 µM. In assay [4], the “effect on cell cycle phases” value is “arrest in the G1/S phase”. In addition, the “levels of H3K27me3” value in assay [3] was “reduction of the H3K27me3 levels”.
In the case of `O=C1/C(=C/c2ccccc2Br)CN(C(=O)c2ccccc2)C/C1=C\c1ccccc1Br` [Compound 4k, 1-Benzoyl-3,5-bis((E)-2-bromobenzylidene)piperidin-4-one], the values for the IC50 in assay [1] and in assay [2] were 1.33 ± 0.14 µM and 40.7 ± 15.3 µM, respectively.
Consider `O=C1/C(=C/c2ccccc2Br)CN(C(=O)Cc2ccccc2)C/C1=C\c1ccccc1Br` [Compound 4l, 3,5-Bis((E)-2-bromobenzylidene)-1-(2-phenylacetyl)piperidin-4-one], for which the IC50 in assay [1] was 0.43 ± 0.12 µM; in assay [2], 15.2 ± 2.2 µM. Also, in assay [4], the “effect on cell cycle phases” value is listed as “arrest in the G1/S phase”. Also, the “levels of H3R17me2” value in assay [5] is “most effective”.
For `O=C1/C(=C/c2ccccc2Br)CN(C(=O)CCc2ccccc2)C/C1=C\c1ccccc1Br` [Compound 4m, 3,5-Bis((E)-2-bromobenzylidene)-1-(3-phenylpropanoyl)piperidin-4-one], the 50% inhibitory concentration (IC50) in assay [1] stood at 0.79 ± 0.06 µM. Further, in assay [4], the “effect on cell cycle phases” value is “arrest in the G1/S phase” and the “induction of apoptosis, % sub-G1 peaks” value came out at 17%. The same compound came in with an IC50 in assay [2] of 11.3 ± 0.08 µM. In addition, the “levels of H3K27me3” value in assay [3] is given as “reduction of the H3K27me3 levels”. Further, the “levels of H3R17me2” value in assay [5] is recorded as “most effective”.
`O=C1/C(=C/c2ccccc2Br)CN(C(=O)C=Cc2ccccc2)C/C1=C\c1ccccc1Br` [Compound 4n, 3,5-Bis((E)-2-bromobenzylidene)-1-cinnamoylpiperidin-4-one]: the IC50 stood at 7.14 ± 2.54 µM in assay [1] and 13.9 ± 1.8 µM in assay [2]. Also, in assay [3], the “levels of H3K27me3” value is given as “reduction of the H3K27me3 levels”.
